Values of other authors as cited in patent US20240226070A1, “URAT1 INHIBITOR, PHARMACEUTICAL COMPOSITIONS AND USES THEREOF” (UR-1 Therapeutics, Inc., priority 2021, published 2024).
pIC50: −log10 of the molar value.

Key:
[1] = system: 5/6 Nx rats; settings: for effect on aggravation of CKD by hyperuricemia: 5/6 Nx rats dosed with potassium oxonate (750 mg/kg BW)
[2] = oral administration, 1.3 mg/kg
[3] = molecular target: T1, ATP-binding cassette subfamily G member 2 (ABCG2) (Homo sapiens, UniProt Q9UNQ0); settings: in vitro
T1 sequence (Q9UNQ0 1-655): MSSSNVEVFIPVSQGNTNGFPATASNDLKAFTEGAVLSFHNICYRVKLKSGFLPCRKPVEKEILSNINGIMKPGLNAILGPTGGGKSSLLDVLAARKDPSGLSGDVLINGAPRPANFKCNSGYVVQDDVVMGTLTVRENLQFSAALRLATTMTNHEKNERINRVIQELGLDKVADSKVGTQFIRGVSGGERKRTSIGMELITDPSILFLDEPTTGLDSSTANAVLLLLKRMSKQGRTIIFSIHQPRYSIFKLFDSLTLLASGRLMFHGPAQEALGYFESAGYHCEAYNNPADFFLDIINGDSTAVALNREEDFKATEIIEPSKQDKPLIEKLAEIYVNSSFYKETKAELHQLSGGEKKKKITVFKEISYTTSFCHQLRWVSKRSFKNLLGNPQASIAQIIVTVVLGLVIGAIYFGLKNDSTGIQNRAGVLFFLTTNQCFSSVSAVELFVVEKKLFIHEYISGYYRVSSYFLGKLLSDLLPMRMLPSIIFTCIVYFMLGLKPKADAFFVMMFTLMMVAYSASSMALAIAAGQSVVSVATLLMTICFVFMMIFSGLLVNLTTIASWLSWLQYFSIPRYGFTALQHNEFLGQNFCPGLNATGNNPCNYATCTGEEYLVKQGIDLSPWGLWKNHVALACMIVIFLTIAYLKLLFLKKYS

[4] = molecular target: T2, OAT1 (Homo sapiens, UniProt Q4U2R8); settings: in vitro
T2 sequence (Q4U2R8 1-563): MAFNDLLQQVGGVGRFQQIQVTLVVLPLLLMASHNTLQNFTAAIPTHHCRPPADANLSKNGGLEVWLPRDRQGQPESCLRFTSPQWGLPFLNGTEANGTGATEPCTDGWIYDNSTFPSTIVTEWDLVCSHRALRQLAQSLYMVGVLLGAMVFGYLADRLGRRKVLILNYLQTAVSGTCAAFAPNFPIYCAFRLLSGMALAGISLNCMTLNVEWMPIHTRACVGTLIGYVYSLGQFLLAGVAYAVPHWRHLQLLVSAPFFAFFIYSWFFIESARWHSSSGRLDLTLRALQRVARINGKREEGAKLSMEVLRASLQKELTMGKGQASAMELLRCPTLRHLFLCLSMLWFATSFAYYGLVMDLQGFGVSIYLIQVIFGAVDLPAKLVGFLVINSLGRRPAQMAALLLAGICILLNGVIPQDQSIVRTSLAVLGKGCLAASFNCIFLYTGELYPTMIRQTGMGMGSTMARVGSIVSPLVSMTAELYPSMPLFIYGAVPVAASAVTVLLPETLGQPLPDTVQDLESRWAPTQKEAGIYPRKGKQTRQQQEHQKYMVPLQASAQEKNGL

[5] = molecular target: T3, OAT3 (Homo sapiens, UniProt Q8TCC7); settings: in vitro
T3 sequence (Q8TCC7 1-542): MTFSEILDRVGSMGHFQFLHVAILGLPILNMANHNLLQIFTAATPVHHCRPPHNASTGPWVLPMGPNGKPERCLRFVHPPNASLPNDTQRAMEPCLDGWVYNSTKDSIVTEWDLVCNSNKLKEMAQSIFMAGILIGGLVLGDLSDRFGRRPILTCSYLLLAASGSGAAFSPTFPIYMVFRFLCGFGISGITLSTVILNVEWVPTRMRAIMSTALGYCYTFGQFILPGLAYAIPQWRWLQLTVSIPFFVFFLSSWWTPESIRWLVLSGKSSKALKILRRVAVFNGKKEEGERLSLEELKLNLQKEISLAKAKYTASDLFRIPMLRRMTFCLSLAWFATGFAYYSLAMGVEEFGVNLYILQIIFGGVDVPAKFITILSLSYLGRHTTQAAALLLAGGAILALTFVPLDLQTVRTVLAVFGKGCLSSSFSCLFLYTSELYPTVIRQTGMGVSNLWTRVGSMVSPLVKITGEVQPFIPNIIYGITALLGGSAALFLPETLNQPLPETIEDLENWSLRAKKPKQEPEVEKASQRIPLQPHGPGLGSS

Row | Cmax [2] [ng/mL] | oral bioavailability [2] [%] | plasma clearance ([2]; Sprague-Dawley rats) [mL/min/kg] | terminal elimination half-life (T1/2) ([2]; Sprague-Dawley rats) [h] | pIC50 [3] | pIC50 [4] | pIC50 [5] | SMILES | effect on aggravation of CKD by hyperuricemia [1] | nephroprotection ([1]; 5/6 rats that not received oxonic acid)
1 |  |  |  |  |  |  |  | Cc1nc(-c2ccc(OCC(C)C)c(C#N)c2)sc1C(=O)O [Febuxostat, febuxostat] | prevented the aggravation of the disease | significant nephroprotection
2 |  |  |  |  |  |  |  | Oc1ncnc2[nH]ncc12 [Allopurinol, allopurinol] | prevented the aggravation of the disease | 
3 | 415 | 2.5 | 402.1 | 1.88 | 5.38 | 5.39 | 5.88 | O=C(c1cc(Cl)c(O)c(Cl)c1)N1CS(=O)(=O)c2ccccc21 [Dotinurad, 3-(3,5-dichloro-4-hydroxybenzoyl)-1,1-dioxo-2,3-dihydro-1,3-benzothiazole] |  | 
